According to patent US6562381B2, “(+)-Cycloolivil as antioxidant obtained from natural source namely stereospermum personatum” (Council of Scientific and Industrial Research, priority 2001, dated 2003):

Experiments:
[1] = known activity, Chem. Pharm. Bull, 1986, 34, 3514-17; cited from earlier work
[2] = tested on: Cyclic AMP phosphodiesterase; conditions: known activity, Chem. Pharm. Bull, 1981, 29, 3586-92; cited from earlier work
[3] = In vitro free radical (DPPH) scavenging antioxidant potency; type: biochemical; conditions: for 50% Radical scavenging concentration: DPPH radical, tris-HCl buffer pH 7.4, 45 minutes in dark, absorbency at 517 nm, triplicate
Experimental: Antioxidant activity of the compounds was tested for its capacity/potency to scavenge most widely used free radical, 1,1-diphenyl-2-picryl hyrazyl radical (DPPH). […] 200 μl of test compounds were reconstituted to 1 ml in tris-HCl buffer (pH 7.4). […] After incubation for 45 minutes in dark, the absorbency at 517 nm was recorded. Percent radical scavenging activity was calculated accordingly. All the readings were taken in triplicate.

| Structure (SMILES) | Ca^2+ antagonist activity [1] | Cyclic AMP phosphodiesterase inhibition [2] | 50% Radical scavenging concentration [3] [µg/mL] | Antioxidant activity compared with reference drugs Probucol and alpha-tocopherol ([3]; comparison in words) |
| --- | --- | --- | --- | --- |
| COc1cc([C@H]2c3cc(O)c(OC)cc3C[C@@](O)(CO)[C@@H]2CO)ccc1O [(+)-Cycloolivil] | Ca^2+ antagonist activity | inhibition | 21.74 | better than the above mentioned reference drugs |
| Cc1c(C)c2c(c(C)c1O)CCC(C)(CCCC(C)CCCC(C)CCCC(C)C)O2 (stereo not drawn) [DL α-Tocopherol, reference compound] | – | – | 47.80 | – |
